Results reported in paper PMC10687119, “Quaternary Ammonium Salts of Cationic Lipopeptides with Lysine Residues — Synthesis, Antimicrobial, Hemolytic and Cytotoxic Activities” (Probiotics and Antimicrobial Proteins, 2023).
≈ marks a conversion by molar mass, not a printed value. Like-named read-outs stand apart in the source and are kept apart here. Where a SMILES comes first, the peptide text is derived from it. The star is where a group is joined. Stearoyl = CCCCCCCCCCCCCCCCCC(=O)*; Palmitoyl = CCCCCCCCCCCCCCCC(=O)*

Assays:
[1] = test system: human keratinocyte cell line (HaCaT); assay type: cell-based; details: 24 h
Method: The immortalized human keratinocyte cell line (HaCaT), obtained from CLS (Cell Line Service, Germany) was cultured in DMEM-high glucose (Dulbecco’s Modified Eagle Medium) supplemented with 10% fetal bovine serum, 2 mM L-glutamine, 100 U/mL penicillin and 100 μg/mL streptomycin (Sigma-Aldrich; Merck KGaA) at 37 °C in a humidified atmosphere with 5% CO2. Cells were trypsinized, and the medium was renewed 2–3 times per week. The cytotoxicity of compounds was assessed by colorimetric CellTilter 96® Aqueous One Solution Cell Proliferation Assay (Promega, USA), containing a tetrazolium compound according to the manufacturer’s instructions. In brief, 7 × 10^3 HaCaT cells per well were plated on 96-well plates and incubated per night to adhere to the cultured dishes. After that time, different concentrations of the tested compounds ranging from 512 to 1 μg/mL were applied to the wells. Every compound was medium-soluble at 37 °C; thus, the non-treated cells were negative control. Serial dilutions of the tested compounds were always prepared before use. Cells were incubated with drugs for 24 h, and then, 20 μL of the CellTiter 96®AqueousOne Solution Reagent was added to each well containing treated cells in 100 µl of culture medium. After 4 h of incubation at 37 °C, the absorbance at 490 nm was recorded using a microplate reader (Epoch, BioTek Instruments, USA). The quantity of formazan product as measured by the amount of 490 nm absorbance is directly proportional to the number of living cells in culture. Benzalkonium chloride (Sigma-Aldrich, Germany) was used as reference compound. At least three independent experiments with two replicates were conducted for each concentration of a compound, and the IC50 values were calculated using GraphPad Prism 8 software.

[2] = test system: A. baumannii ATCC BAA 1605; assay type: cell-based, Acinetobacter baumannii
Method: (§1) The Acinetobacter baumannii ATCC BAA-1605, Enterococcus faecium ATCC 700221, Klebsiella aerogenes ATCC 13048, Klebsiella pneumoniae ATCC 700603, Pseudomonas aeruginosa ATCC 9027, Staphylococcus aureus ATCC 33591, Candida glabrata ATCC 15126 strains were acquired from the American Type Culture Collection (ATCC, Manassas, USA). All the strains were stored at −80 °C in Roti-Store cryo vials (Carl Roth GmbH, Germany) and before the tests were transferred into fresh Mueller–Hinton broth (MHB, Becton Dickinson, Poland) for bacteria or RPMI-1640 (Sigma-Aldrich, Germany) for fungi and incubated for 24 h at 37 °C. Then, the cultures were cultured on the Mueller–Hinton agar (BioMaxima, Poland) or Sabouraud dextrose agar (SDA, BioMaxima) plates, respectively, and incubated as just mentioned. For microbiological assays, a minimum of three to five well-isolated colonies of the same morphological type were carefully picked from the agar cultures. These colonies were transferred with sterile loop into fresh microbiological medium and incubated with shaking (100 rpm) at 37 °C until they reached logarithmic phase of growth. Cell densities for all assays were adjusted through spectrophotometric measurements (Multiskan GO Microplate Spectrophotometer, Thermo Fisher Scientific, Finland) at 600 and 530 nm for bacteria and fungi, respectively.
(§2) The MICs were determined by broth microdilution method according to the Clinical and Laboratory Standard Institute guidelines. For this purpose, initial inoculums of bacteria (5 × 10^5 CFU/mL) in MHB and yeasts (2 × 10^3 CFU/mL) in RPMI-1640 with 2% D-glucose were exposed to the ranging concentration of lipopeptides (1–512 μg/mL) and incubated at 37 °C for 18 h and 24 h, respectively. The experiments were conducted on 96-well microtiter polystyrene plates (Kartell, Italy). The growth was assessed visually after incubation and the MIC was assumed as the lowest peptide concentration at which a noticeable growth of microorganisms was inhibited. Benzalkonium chloride (Sigma-Aldrich, Germany) was used as reference compound. All experiments were conducted in triplicate.

[3] = test system: P. aeruginosa ATCC 9027; assay type: cell-based, Pseudomonas aeruginosa
Method: as §1, §2

[4] = test system: S. aureus ATCC 33591; assay type: cell-based, Staphylococcus aureus
Method: as §1, §2

[5] = test system: human red blood cells (RBCs); assay type: cell-based; details: red cells of human
Method: The hemolysis assay was conducted using a procedure described previously. For this purpose, human red blood cells (RBCs) isolated from K2EDTA Single Donor Human Whole blood (Innovative Research, Inc, MI, USA) were rinsed with Phosphate-buffer saline (PBS, pH 7.4±0.05, composition - KCl 2.7 mM, NaCl 140 mM, phosphate 10mM; AppliChem GmbH, Germany) by centrifugation for 10 min at 800 × g. This process was repeated 3 times and the RBCs were resuspended in PBS. Then, the stock solution of RBCs was added to the serial dilution of lipopeptides on 96-well polystyrene plates to reach a final volume of 100 μL with a 4% concentration of erythrocytes (v/v) and a concentration range of 1-512 μg/mL of tested compounds. The control wells for 0% and 100% hemolysis consisted of RBCs suspended in PBS and 1% of Triton X-100 (Sigma-Aldrich, Germany), respectively. Benzalkonium chloride (Sigma-Aldrich, Germany) was used as reference compound. Subsequently, the plates were incubated for 60 min at 37 °C and then centrifuged at 800 × g for 10 min at 4 °C (Sorvall ST […] Centrifuge, Thermo Scientific). The supernatant was carefully […] to new microtiter plates. The release of hemoglobin was monitored absorbance measurements at 540 nm (MultiskanTM GO Microplate Spectrophotometer, Thermo Scientific). All experiments were conducted in triplicate. HC50 was calculated using an ic50.tk tool.

[6] = test system: K. aerogenes ATCC 13048; assay type: cell-based, Klebsiella aerogenes
Method: as §1, §2

[7] = test system: K. pneumoniae ATCC 700603; assay type: cell-based, Klebsiella pneumoniae
Method: as §1, §2

[8] = test system: E. faecium ATCC 700221; assay type: cell-based, Enterococcus faecium
Method: as §1, §2

[9] = test system: C. glabrata ATCC 15126; assay type: cell-based, Candida glabrata
Method: as §1, §2

[10] = S. aureus ATCC 33591, 18 h, 37 °C
[11] = C. glabrata ATCC 15126, 24 h, 37 °C

Molecule | MIC ([2]; ATCC BAA 1605, 18 h) [µg/mL] | MIC ([3]; ATCC 9027, 18 h) [µg/mL] | MIC [4, 10] [µg/mL] | HC50 [5] [µg/mL] | MIC ([6]; ATCC 13048, 18 h) [µg/mL] | MIC ([7]; ATCC 700603, 18 h) [µg/mL] | MIC ([8]; ATCC 700221, 18 h) [µg/mL] | MIC ([9]; ATCC 15126, 24 h) [µg/mL] | MIC ([4]; ATCC 33591, 18 h) [µg/mL] | MIC [9, 11] [µg/mL] | MIC ([2]; A. baumannii ATCC BAA 1605, 18 h, 37 °C) [µg/mL] | MIC ([3]; P. aeruginosa ATCC 9027, 18 h, 37 °C) [µg/mL] | MIC ([8]; E. faecium ATCC 700221, 18 h, 37 °C) [µg/mL] | MIC ([6]; K. aerogenes ATCC 13048, 18 h, 37 °C) [µg/mL] | MIC ([7]; K. pneumoniae ATCC 700603, 18 h, 37 °C) [µg/mL] | IC50 [1] [µg/mL] | IC50 ([1]; HaCaT) [µg/mL]
CCCCCCCCCCCCCCCCCC(=O)N[C@@H](CCCCN)C(N)=O [Peptide 1S, C18-K-NH2] | >512 | >512 | > 512 | >512 | >512 | >512 |  |  |  |  |  |  |  |  |  | 8.34 ± 1.07 (≈ 20.3 µM) | 
CCCCCCCCCCCCCCCC(=O)N[C@@H](CCCC[N+](C)(C)C)C(=O)N[C@@H](CCCC[N+](C)(C)C)C(N)=O [Peptide 2Pq, C16-K(Me3)^+K(Me3)^+-NH2] | 128 | 512 |  | 133.32 ± 6.27 | 512 | 512 | 16 | 64 | 16 |  |  |  |  |  |  | 99.62 ± 9.65 | 
CCCCCCCCCCCCCCCC(=O)N[C@@H](CCCCN)C(=O)N[C@@H](CCCCN)C(N)=O [Peptide 2P, C16-KK-NH2] | 64 (≈ 125 µM) | 16 (≈ 31.3 µM) |  | 55.21 ± 1.69 | 32 (≈ 62.5 µM) | 128 (≈ 250 µM) | 8 (≈ 15.6 µM) | 16 (≈ 31.3 µM) |  |  |  |  |  |  |  | 10.27 ± 1.59 (≈ 20.1 µM) | 
CCCCCCCCCCCCCCCC(=O)N[C@@H](CCCCN)C(N)=O [Peptide 1P, C16-K-NH2] |  | >512 |  | >512 | >512 | >512 | 4 (≈ 10.4 µM) | >512 | >512 |  |  |  |  |  |  | 1.74 ± 0.49 (≈ 4.54 µM) | 
CCCCCCCCCCCCCCCCCC(=O)N[C@@H](CCCC[N+](C)(C)C)C(N)=O [Peptide 1Sq, C18-K(Me3)^+-NH2] | >512 | >512 |  | 16.13 ± 9.88 | >512 | >512 |  | 4 to 8 |  | 4 |  |  |  |  |  | 14.13 ± 0.39 | 
CCCCCCCCCCCCCCCCCC(=O)N[C@@H](CCCCN)C(=O)N[C@@H](CCCCN)C(N)=O [Peptide 2S, C18-KK-NH2] | 32 (≈ 59.3 µM) | 128 (≈ 237 µM) |  | 21.88 ± 0.68 | 32 (≈ 59.3 µM) | 64 (≈ 119 µM) | 4 (≈ 7.41 µM) | 8 (≈ 14.8 µM) |  |  |  |  |  |  |  | 4.33 ± 0.79 (≈ 8.02 µM) | 
benzalkonium chloride [BAC, reference compound] |  |  | 4 |  |  |  |  |  |  | 4 | 16 | 32 | 4 | 16 | 16 |  | 11.70 ± 0.76

Second part, led by results:

MIC ([2]; ATCC BAA 1605, 18 h) [µg/mL] | MIC ([3]; ATCC 9027, 18 h) [µg/mL] | MIC [4, 10] [µg/mL] | HC50 [5] [µg/mL] | MIC ([6]; ATCC 13048, 18 h) [µg/mL] | MIC ([7]; ATCC 700603, 18 h) [µg/mL] | MIC ([8]; ATCC 700221, 18 h) [µg/mL] | MIC ([9]; ATCC 15126, 24 h) [µg/mL] | MIC ([4]; ATCC 33591, 18 h) [µg/mL] | MIC [9, 11] [µg/mL] | MIC ([2]; A. baumannii ATCC BAA 1605, 18 h, 37 °C) [µg/mL] | MIC ([3]; P. aeruginosa ATCC 9027, 18 h, 37 °C) [µg/mL] | MIC ([8]; E. faecium ATCC 700221, 18 h, 37 °C) [µg/mL] | MIC ([6]; K. aerogenes ATCC 13048, 18 h, 37 °C) [µg/mL] | MIC ([7]; K. pneumoniae ATCC 700603, 18 h, 37 °C) [µg/mL] | Molecule | IC50 [1] [µg/mL] | IC50 ([1]; HaCaT) [µg/mL]
64 (≈ 100 µM) | 32 (≈ 50 µM) |  | 135.46 ± 8.69 | 8 (≈ 12.5 µM) | 32 (≈ 50 µM) | 8 (≈ 12.5 µM) | 64 (≈ 100 µM) |  |  |  |  |  |  |  | CCCCCCCCCCCCCCCC(=O)N[C@@H](CCCCN)C(=O)N[C@@H](CCCCN)C(=O)N[C@@H](CCCCN)C(N)=O [Peptide 3P, C16-KKK-NH2] | 45.40 ± 20.45 (≈ 70.9 µM) | 
32 (≈ 47.9 µM) | 16 (≈ 24 µM) |  | 32.11 ± 1.54 | 4 (≈ 5.99 µM) | 8 (≈ 12 µM) | 4 (≈ 5.99 µM) | 8 (≈ 12 µM) |  |  |  |  |  |  |  | CCCCCCCCCCCCCCCCCC(=O)N[C@@H](CCCCN)C(=O)N[C@@H](CCCCN)C(=O)N[C@@H](CCCCN)C(N)=O [Peptide 3S, C18-KKK-NH2] | 88.51 ± 4.72 (≈ 132 µM) | 
64 (≈ 83.3 µM) | 32 (≈ 41.7 µM) |  | >512 | 8 (≈ 10.4 µM) | 32 (≈ 41.7 µM) | 4 (≈ 5.21 µM) | 64 (≈ 83.3 µM) |  |  |  |  |  |  |  | CCCCCCCCCCCCCCCC(=O)N[C@@H](CCCCN)C(=O)N[C@@H](CCCCN)C(=O)N[C@@H](CCCCN)C(=O)N[C@@H](CCCCN)C(N)=O [Peptide 4P, C16-KKKK-NH2] (Palmitoyl-KKKK-NH2) | 126.80 ± 27.26 (≈ 165 µM) | 
16 (≈ 20.1 µM) | 8 (≈ 10 µM) |  | 48.44 ± 4.12 | 4 (≈ 5.02 µM) | 8 (≈ 10 µM) | 4 (≈ 5.02 µM) | 16 (≈ 20.1 µM) |  |  |  |  |  |  |  | CCCCCCCCCCCCCCCCCC(=O)N[C@@H](CCCCN)C(=O)N[C@@H](CCCCN)C(=O)N[C@@H](CCCCN)C(=O)N[C@@H](CCCCN)C(N)=O [Peptide 4S, C18-KKKK-NH2] (Stearoyl-KKKK-NH2) | 155.34 ± 11.20 (≈ 195 µM) | 
